Measurements published in BindingDB's records for doi:10.1016/j.bmc.2012.12.025 (Astellas Pharma, 2013).

Columns and labels:
[1] = target: Diamine oxidase AOC1 (Rattus norvegicus); experiment: Inhibition of rat liver DAO using putrescine as substrate after 1 hr by fluorometric assay
[2] = target: Diamine oxidase AOC1 (Homo sapiens); experiment: Inhibition of human DAO expressed in CHO cells using putrescine as substrate after 1 hr by fluorometric assay

CC(=O)Nc1nc(CCc2ccc(N=C(N)N)cc2)cs1
IC50 [1]: 75 µM
IC50 [2]: > 100 µM
